Here are results for seven compounds from paper PMC10324454, “Novel pyrimidine Schiff bases and their selenium-containing nanoparticles as dual inhibitors of CDK1 and tubulin polymerase: design, synthesis, anti-proliferative evaluation, and molecular modelling” (Journal of Enzyme Inhibition and Medicinal Chemistry, 2023).

Series [1] concerns A549. Description: cells. The conditions noted are these: Homo sapiens. Set-up: MTT cytotoxicity assay, formazan absorbance, viability IC50. The method, then:
(§1) The cytotoxic activity of all synthesised compounds, both normal and nano-sized forms, was evaluated against three cancer cell lines, breast cancer (MCF-7), hepatocellular carcinoma (HepG-2), and non-small cell lung cancer (A549), while the normal Vero cell line was performed for the promising compounds 4, 6 and their nano-sized 4NPs, 6NPs, using the MTT assay according to the literature. The cell lines were obtained from ATCC (American Type Culture Collection). 5-Fluorouracil was used as a control. It is worth noting that freshly prepared nanoparticle-based compounds were used in each of the conducted experiments. The protocol of the MTT assay was illustrated in detail in the Supplementary File. S3 1.1. Biological activity 1.1.1. In vitro cytotoxicity assay The cytotoxic activity of all synthesized compounds, both normal and nano-sized forms, was evaluated against three cancer cell lines, breast cancer (MCF-7), hepatocellular carcinoma (HepG-2), and non-small cell lung cancer (A549), while the normal Vero cell line was performed for the promising compounds 4, 6 and their nano-sized 4NPs, 6NPs, using the MTT assay according to the literature. The cell lines were obtained from ATCC (American Type Culture Collection). 5-Fluorouracil was used as a reference drug. The cytotoxic activities of the examined compounds were quantified by inoculating a 96-well tissue culture plate with 1 X 10 5 cells / mL (100 uL/well) and incubating it at 37°C for 24 hours to develop a complete monolayer sheet. After forming a confluent sheet of cells, the growth medium was decanted from 96-well microtiter plates, and the cell monolayer was washed twice with wash media. Two-fold dilutions of tested samples were made in RPMI medium with 2% serum (maintenance medium), and 0.1 mL of each dilution was tested in different wells, with three wells serving as controls and receiving only maintenance medium. Following that, the plate was incubated at 37°C and examined. Cells were investigated for any physical signs of toxicity, such as partial or complete monolayer loss, rounding, shrinkage, or cell granulation. MTT solution was prepared (5mg/ml in PBS) (BIO BASIC CANADA INC), and 20 uL MTT solution was added to each well. After 5 minutes on a shaking table at 150 rpm to thoroughly mix the MTT into the media, it was incubated (37 ° C, 5% CO2) for 4 hours to allow the MTT to be metabolized. Formazan (MTT metabolic product) was resuspended in 200 uL DMSO and shaken at 150 rpm for 5 minutes to t

In series [2] the test system is MCF-7. The series is described as follows: cells. Also on record: MTT cytotoxicity assay, formazan absorbance, viability IC50. The conditions noted are these: Homo sapiens, MCF7. The method, then:
as §1

The test system of series [3] is HepG-2. The series is described as follows: cells. Set-up: MTT cytotoxicity assay, formazan absorbance, viability IC50. The conditions noted are these: Homo sapiens, HepG2. The method, then: as §1
Series [4] in a line: in vitro. The conditions noted are these: african green monkey, vero cells; read-out: IC50 Vero. Set-up: MTT cytotoxicity assay, formazan absorbance, viability IC50. The method, then: The cytotoxic activity of all synthesised compounds, both normal and nano-sized forms, was evaluated against three cancer cell lines, breast cancer (MCF-7), hepatocellular carcinoma (HepG-2), and non-small cell lung cancer (A549), while the normal Vero cell line was performed for the promising compounds 4, 6 and their nano-sized 4NPs, 6NPs, using the MTT assay according to the literature. The cell lines were obtained from ATCC (American Type Culture Collection). 5-Fluorouracil was used as a control. It is worth noting that freshly prepared nanoparticle-based compounds were used in each of the conducted experiments. The protocol of the MTT assay was illustrated in detail in the Supplementary File. S3 1.1. Biological activity 1.1.1. In vitro cytotoxicity assay The cytotoxic activity of all synthesized compounds, both normal and nano-sized forms, was evaluated against three cancer cell lines, breast cancer (MCF-7), hepatocellular carcinoma (HepG-2), and non-small cell lung cancer (A549), while the normal Vero cell line was performed for the promising compounds 4, 6 and their nano-sized 4NPs, 6NPs, using the MTT assay according to the literature. […] The cytotoxic activities of the examined compounds were quantified by inoculating a 96-well tissue culture plate with 1 X 10 5 cells / mL (100 uL/well) and incubating it at 37°C for 24 hours to develop a complete monolayer sheet. […]

The target of series [5] is T1, tubulin (tubulin polymerase, colchicine binding site).
T1 construct: with alpha/beta-tubulin heterodimer
The series is described as follows: colchicine-tubulin competition-binding assay. The following applies: read-out: Tubulin polymerase (CBS) (IC50 μM ± SD).

Series [6] has as its target T2, CDK1 (Homo sapiens, UniProt P06493).
T2 construct: with cyclin B1
The series is described as follows: in vitro CDK1/cyclin B1 kinase inhibition assay (kit). In kind it is biochemical. The following applies: read-out: CDK1 (IC50 μM ± SD).

The term IC50 denotes the concentration needed to halve the response being measured.

T2 sequence (P06493 whole entry): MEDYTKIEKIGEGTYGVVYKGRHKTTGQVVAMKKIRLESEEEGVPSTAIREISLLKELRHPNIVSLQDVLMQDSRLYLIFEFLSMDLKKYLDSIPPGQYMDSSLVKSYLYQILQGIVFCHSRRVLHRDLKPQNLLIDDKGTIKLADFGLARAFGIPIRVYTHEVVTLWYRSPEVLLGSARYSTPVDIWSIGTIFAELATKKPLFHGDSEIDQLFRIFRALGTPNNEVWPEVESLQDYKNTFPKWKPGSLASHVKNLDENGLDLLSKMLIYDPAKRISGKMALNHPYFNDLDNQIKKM
T2 sequence (P14635 whole entry partner): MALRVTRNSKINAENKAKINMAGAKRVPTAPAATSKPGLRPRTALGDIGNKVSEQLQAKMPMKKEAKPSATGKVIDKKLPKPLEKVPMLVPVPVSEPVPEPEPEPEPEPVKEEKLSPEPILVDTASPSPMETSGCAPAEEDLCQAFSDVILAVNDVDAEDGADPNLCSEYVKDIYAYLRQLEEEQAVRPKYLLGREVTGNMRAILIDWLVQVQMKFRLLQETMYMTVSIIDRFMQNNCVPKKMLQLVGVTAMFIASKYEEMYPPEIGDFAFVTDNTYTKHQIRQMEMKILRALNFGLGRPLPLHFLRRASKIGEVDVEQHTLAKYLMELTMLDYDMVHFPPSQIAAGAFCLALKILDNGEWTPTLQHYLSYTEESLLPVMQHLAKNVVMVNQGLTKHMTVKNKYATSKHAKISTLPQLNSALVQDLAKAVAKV

Turning to `O=c1[nH]cc(F)c(=O)[nH]1` [5-FU, 5-fluorouracil], the half-inhibitory concentration (IC50) in series [1] is 760 nM; in series [2], 1820 nM; in series [3] it was 1360 nM. Also, in series [4], the CC50 turned out to be 3040 nM.

`CN(C)c1ccc(/C=N/c2c(N)n(C)c(=O)[nH]c2=O)cc1` [compound 4, (E)-6-amino-5-((4-(dimethylamino)benzylidene)amino)-1-methylpyrimidine-2,4(1H,3H)-dione]: the IC50 stood at 1070 ± 30 nM in series [3], 1.93 ± 0.119 µM in series [5] and 2.18 ± 0.06 µM in series [6].

Compound `Cn1c(N)c(/N=C/c2ccc(O)cc2)c(=O)[nH]c1=O` [compound 5, (E)-6-amino-5-((4-hydroxybenzylidene)amino)-1-methylpyrimidine-2,4(1H,3H)-dione] had an IC50 in series [3] of 4070 ± 80 nM.

In series [3], `CCn1c(N)c(/N=C/c2ccc(O)cc2)c(=O)[nH]c1=O` [compound 6, (E)-6-amino-1-ethyl-5-((4-hydroxybenzylidene)amino)pyrimidine-2,4(1H,3H)-dione] yielded an IC50 of 1970 ± 50 nM.

`CCn1c(N)c(/N=C/c2ccc([N+](=O)[O-])cc2)c(=O)[nH]c1=O` [compound 7, (E)-6-amino-1-ethyl-5-((4-nitrobenzylidene)amino)pyrimidine-2,4(1H,3H)-dione] registered an IC50 in series [3] of 3380 ± 110 nM.

With `CCn1c(N)c(/N=C/c2ccccc2[N+](=O)[O-])c(=O)[nH]c1=O` [compound 8, (E)-6-amino-1-ethyl-5-((2-nitrobenzylidene)amino)pyrimidine-2,4(1H,3H)-dione], half-maximal inhibition in series [3] (IC50) required 2100 ± 90 nM.

The compound `CCn1c(N)c(/N=C/c2ccc(Br)cc2)c(=O)[nH]c1=O` [compound 9, (E)-6-amino-5-((4-bromobenzylidene)amino)-1-ethylpyrimidine-2,4(1H,3H)-dione] gave an IC50 in series [3] of 3470 ± 90 nM.
